Assay results reported in US9937235B2, “Lipidated peptides as anti-obesity agents” (USTAV ORGANICKE CHEMIE A BIOCHEMIE AKADEMIE VED CR, V.V.I, priority 2012, dated 2018).
Where a SMILES comes first, the peptide text is derived from it. [ ]: non-standard residue; d: D form. The star is where a group is joined. 1Nal = N[C@@H](Cc1cccc2ccccc12)C(=O)O; Myristoyl = CCCCCCCCCCCCCC(=O)*; Nle = CCCC[C@H](N)C(=O)O; Octanoyl = CCCCCCCC(=O)*; Dap = NC[C@H](N)C(=O)O

What was measured:
[1] = test system: MAPK/ERK1/2 signaling pathway in RC-4B/C cells; assay: MAPK/ERK1/2 signaling in RC-4B/C cells (Western blot); type: cell-based, rat; settings: 10^−6 mol·l^−1, 5 minute incubation
Description: RC-4B/C cells, which were used to determine if lipidated PrRP20 analogs are able to initiate the MAPK/ERK1/2 signaling pathway, were grown in 6-well plates up to the optimal density of […]. Seventeen hours before sample harvest, the growth medium was replaced by a serum-free medium lacking epidermal growth factor (EGF). The respective lipidated PrRP analog was added to each well in the final concentration of 10^−6 mol·l^−1. After a 5 minute incubation at 37° C., the plate was placed on ice and each well was rinsed three times with PBS pH 7.4 (137 mmol·l^−1 NaCl, 2.7 mmol·l^−1 KCl, 8 mmol·l^−1 Na2HPO4.2H2O a 1.76 mmol·l^−1 KH2PO4) and cooled to 4° C. […] Samples were collected in at least three independent experiments.
To determine if the lipidated PrRP20 analogs initiated the MAPK/ERK1/2 signaling pathway, Western blot analysis was used. Electrophoresis was performed on 5%/12% polyacrylamide gel in the presence of SDS (SDS-PAGE) on the instrument MiniProtean 3 (BioRad, Herkules, Calif., USA). Samples that were loaded on the gel were first disintegrated by ultrasound, then heated at 100° C. for 2 minutes, and centrifuged for 5 minutes at 500×g at room temperature. […] Electrophoresis was performed at a constant voltage of 100 V for 10 minutes, or for 60 minutes at 150 V.
To show the presence of phosphorylated proteins in the samples, the proteins from the SDS-PAGE gel were transferred to the Immobilon™-P PVDF (polyvinylidene difluoride) membrane (Sigma-Aldrich, USA). The transfer was performed in blotting buffer at pH 8.3 (25 mmol·l^−1 Tris, 192 mmol·l^−1 glycine and 20% methanol) for 20 hours at 4° C. at a constant voltage of 30 V.
After the protein transfer to the PVDF membrane, the membranes were washed for 5 minutes in TBS washing buffer (20 mmol·l^−1 Tris, 140 mmol·l^−1 NaCl and 0.1% Tween-20) and then incubated for 1 hour in blocking buffer (TBS with 5% non-fat milk powder and 5 mmol·l^−1 Na3VO4 and 50 mmol·l^−1 NaF) at room temperature. Further, the membranes were washed three times for 5 minutes using the TBS washing buffer. The membranes were then incubated with the primary antibody against phospho-p44/42 MAPK(Thr202/Tyr204) (Cell Signaling Technology, Beverly, USA) which was diluted in blocking buffer at 1:1000. After the next three washes with the TBS washing buffer for 5 minutes, the membranes were incubated for 1 hour with rabbit secondary antibody labeled with peroxidase (Sigma, St. Louis, USA) which was diluted in blocking buffer at 1:12,000.
The membranes were then washed three times in TBS washing buffer for 5 minutes and then the solution Femto (Pierce SuperSignal, Thermo Fisher Scientific, Rockford, Ill., USA) was applied. The induced chemiluminiscence was detected by a CCD camera (LAS 3000, Fuji Photo Film GmBH, Düsseldorf, Germany).
To assess the initiation of signaling pathways, a densitometric analysis using the program Quantity One (BioRad, Hercules, Calif., USA) was used. For statistical evaluation of the statistically significant response of the cellular signaling, one-way ANOVA with subsequent Dunnett post-hoc test was used. Data was statistically significant at P<0.05.

fasted C57BL/6 mice [2] = assay: Food intake in fasted mice after SC administration; type: in vivo, mouse; settings: SC administration; for % control: food intake vs saline
Procedure, shortened: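 Male C57BL/6 mice, food-deprived 17 h, received saline, PrRP or lipidated analogs either SC at 1-10 mg/kg or ICV into the third ventricle at 4 nmol/mouse.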

[3] = molecular target: T1, rat PrRP receptor (GPR10) in RC-4B/C cells (Rattus norvegicus, UniProt Q64121); assay: Competitive binding to rat pituitary RC-4B/C cells; settings: ^125I-rat PrRP31, RC-4B/C cells
T1 construct: host or cells: RC-4B/C rat pituitary cell line
T1 sequence (Q64121 1-370): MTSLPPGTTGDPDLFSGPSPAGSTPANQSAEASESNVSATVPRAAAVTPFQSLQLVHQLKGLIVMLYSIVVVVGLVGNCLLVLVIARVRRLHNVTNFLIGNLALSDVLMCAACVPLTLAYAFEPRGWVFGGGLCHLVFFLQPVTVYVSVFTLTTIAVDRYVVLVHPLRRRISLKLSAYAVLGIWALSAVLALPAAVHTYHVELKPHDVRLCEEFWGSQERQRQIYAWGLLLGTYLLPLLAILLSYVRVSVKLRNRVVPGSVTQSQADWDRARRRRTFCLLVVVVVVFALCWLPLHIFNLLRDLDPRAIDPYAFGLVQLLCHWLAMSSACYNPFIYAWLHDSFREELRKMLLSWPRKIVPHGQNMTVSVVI
Description: Competitive binding experiments were performed according to Motulsky and Neubig (Motulsky, A., et al., “Analyzing radioligand binding data,” Curr Protoc Neurosci, Chapter 7, Unit 7.5, 2002). The rat pituitary cell line RC-4B/C (ATCC, Manassas, USA) was grown on 24-well plates which had their bottom coated with polyethyleneimine. The cells were grown to the optimal density of 300-450 thousand per well. […] Plates were incubated for 60 minutes at room temperature. After incubation, the cells were solubilized in 0.1 mol/l solution of NaOH and the radioactivity bound to the cells was counted using a γ-counter. The experiments were performed in duplicate and repeated at least three times. For evaluation of competitive binding experiments, the program Graph Pad Prism Software (San Diego, Calif., USA) was used. A method of nonlinear regression assuming one-site binding was used.

fasted C57BL/6 mice [4] = assay: Food intake in fasted mice after ICV administration; type: in vivo; settings: 4 nmol/mouse; for % control: food intake vs saline
Description: Male C57BL/6 mice (An Lab, Prague 4) were bred in the accredited animal facility in the Institute of Organic Chemistry and Biochemistry, Czech Academy of Sciences, Prague, at the Institute of Molecular Genetics, Prague 4, at the temperature of 22±2° C. with access to food and water ad libitum. The day/night cycle was 12/12 hours (light turned on at 6:00 am). Animals were treated according to the Animal Protection Act (Act No. 246/1992). The males were fed standard chow diet St-1 (Mlýn Kocanda, Praha, Czech Republic) which contained 66% saccharides, 25% proteins and 9% lipids with a caloric value of 3.4 kcal/g.
The food was withdrawn 17 hours prior to injection of lipidated peptide and free access to water was maintained. The administration of saline, PrRP or lipidated analogs was performed either by SC injection at doses of 1-10 mg/kg (volume 0.2 ml/mouse), or by ICV using infusion pump (cannulae were inserted into the third brain ventricle 4 days before the experiment following the procedure of Maixnerová et al. (Maixnerová et al., 2011)). The single dose of peptide was 4 nmol/mouse (5 μl/mouse).
Fifteen minutes after the lipidated peptide administration, the mice were given pre-weighed food. The food was then weighed every 30 minutes for 5-10 hours. The administration of every dose was performed at least twice and one group of mice consisted of at least 6 mice. The results were presented as % of food intake as compared with the control group injected with saline.
Statistical evaluation was performed using program Graph-Pad Prism Software (San Diego, Calif., USA), and the one-way ANOVA with a subsequent Dunnettovým post-hoc test. The difference in food intake between mice injected with saline and mice injected with the examined peptide were considered statistically significant at P<0.05.

[5] = 45 minutes, dose not stated for these substances
[6] = 300 minutes, dose not stated for these substances

SMILES	ERK signaling [1]	food intake (fasted C57BL/6 mice [2]; 45 minutes, 10 mg/kg)	% control (fasted C57BL/6 mice [2]; 45 minutes, 10 mg/kg)	food intake (fasted C57BL/6 mice [2]; 300 minutes, 10 mg/kg)	% control (fasted C57BL/6 mice [2]; 300 minutes, 10 mg/kg)	% of PrRP31 binding [3]	food intake (fasted C57BL/6 mice [4]; 45 minutes)	% control (fasted C57BL/6 mice [4]; 45 minutes)	food intake (fasted C57BL/6 mice [4]; 300 minutes)	% control (fasted C57BL/6 mice [4]; 300 minutes)	food intake (fasted C57BL/6 mice [2]; [5])	% control (fasted C57BL/6 mice [2]; [5])	food intake (fasted C57BL/6 mice [2]; [6])	% control (fasted C57BL/6 mice [2]; [6])	food intake (fasted C57BL/6 mice [2]; 45 minutes, 5 mg/kg)	% control (fasted C57BL/6 mice [2]; 45 minutes, 5 mg/kg)	% control (fasted C57BL/6 mice [2]; 300 minutes, 5 mg/kg)
CCCC[C@H](NC(=O)[C@H](CO)NC(=O)[C@H](Cc1c[nH]cn1)NC(=O)[C@H](CCC(N)=O)NC(=O)[C@H](Cc1c[nH]cn1)NC(=O)[C@H](C)NC(=O)[C@H](CCCNC(=N)N)NC(=O)[C@@H](N)CN)C(=O)N[C@@H](CCC(=O)O)C(=O)N[C@H](C(=O)N[C@@H](CCCNC(=N)N)C(=O)N[C@H](C(=O)N1CCC[C@H]1C(=O)N[C@@H](CC(=O)O)C(=O)N[C@H](C(=O)N[C@@H](CC(N)=O)C(=O)N1CCC[C@H]1C(=O)N[C@@H](C)C(=O)N[C@@H](Cc1c[nH]c2ccccc12)C(=O)N[C@@H](Cc1ccc(O)cc1)C(=O)N[C@H](C(=O)NCC(=O)N[C@@H](CCCNC(=N)N)C(=O)NCC(=O)N[C@H](C(=O)N[C@@H](CCCNC(=N)N)C(=O)N1CCC[C@H]1C(=O)N[C@H](C(=O)NCC(=O)N[C@@H](CCCNC(=N)N)C(=O)N[C@@H](Cc1ccccc1)C(N)=O)C(C)C)[C@@H](C)CC)[C@@H](C)O)[C@@H](C)CC)[C@@H](C)O)[C@@H](C)O [Analog 1] (H-[Dap]RAHQHS[Nle]ETRTPDINPAWYTGRGIRPVGRF-NH2)	agonist	0.38 g	117%	1.05 g	97%	132%	0.39 g	70%	0.71 g	53%							
CCCCCCCC(=O)NC[C@H](N)C(=O)N[C@@H](CCCNC(=N)N)C(=O)N[C@@H](C)C(=O)N[C@@H](Cc1c[nH]cn1)C(=O)N[C@@H](CCC(N)=O)C(=O)N[C@@H](Cc1c[nH]cn1)C(=O)N[C@@H](CO)C(=O)N[C@@H](CCCC)C(=O)N[C@@H](CCC(=O)O)C(=O)N[C@H](C(=O)N[C@@H](CCCNC(=N)N)C(=O)N[C@H](C(=O)N1CCC[C@H]1C(=O)N[C@@H](CC(=O)O)C(=O)N[C@H](C(=O)N[C@@H](CC(N)=O)C(=O)N1CCC[C@H]1C(=O)N[C@@H](C)C(=O)N[C@@H](Cc1c[nH]c2ccccc12)C(=O)N[C@@H](Cc1ccc(O)cc1)C(=O)N[C@H](C(=O)NCC(=O)N[C@@H](CCCNC(=N)N)C(=O)NCC(=O)N[C@H](C(=O)N[C@@H](CCCNC(=N)N)C(=O)N1CCC[C@H]1C(=O)N[C@H](C(=O)NCC(=O)N[C@@H](CCCNC(=N)N)C(=O)N[C@@H](Cc1cccc2ccccc12)C(N)=O)C(C)C)[C@@H](C)CC)[C@@H](C)O)[C@@H](C)CC)[C@@H](C)O)[C@@H](C)O [Analog 8] (H-[Dap](Octanoyl)RAHQHS[Nle]ETRTPDINPAWYTGRGIRPVGR[1Nal]-NH2)	agonist					13%	0.34 g	60%	1.05 g	79%	0.17 g	76%	0.78 g	90%			
CCCCCCCCCCCCCC(=O)N[C@H](C(=O)N1CCC[C@H]1C(=O)N[C@@H](CC(=O)O)C(=O)N[C@H](C(=O)N[C@@H](CC(N)=O)C(=O)N1CCC[C@H]1C(=O)N[C@@H](C)C(=O)N[C@@H](Cc1c[nH]c2ccccc12)C(=O)N[C@@H](Cc1ccc(O)cc1)C(=O)N[C@H](C(=O)NCC(=O)N[C@@H](CCCNC(=N)N)C(=O)NCC(=O)N[C@H](C(=O)N[C@@H](CCCNC(=N)N)C(=O)N1CCC[C@H]1C(=O)N[C@H](C(=O)NCC(=O)N[C@@H](CCCNC(=N)N)C(=O)N[C@@H](Cc1ccccc1)C(N)=O)C(C)C)[C@@H](C)CC)[C@@H](C)O)[C@@H](C)CC)[C@@H](C)O [Analog 10] (Myristoyl-TPDINPAWYTGRGIRPVGRF-NH2)	agonist					632%	0.28 g	51%	1.1 g	86%					0.11 g	32%	44%
